Reference: patent US6537770B1, “Assay for detecting phospho-N-acetylmuramyl-pentapeptide translocase activity” (priority 1999, dated 2003)

Columns and labels:
[1] = target: T1, translocase enzyme (Escherichia coli membranes) (Escherichia coli, UniProt P0A6W3); experiment: phospho-N-acetylmuramyl-pentapeptide translocase assay with 3H-propionated UDP-MPP, butanol extraction and scintillation counting; type: biochemical; details: Tunicamycin at 0.3 μg/ml; FIG. 2
T1 construct: The membranes are prepared from spheroplast pellets which are commercially available; Each pellet contains a certain amount of E. coli Hfr H; endogenous in cells; host or cells: E. coli Hfr H membranes, prepared from commercially available spheroplast pellets
Experimental: Eppendorf tubes were individually filled with a total of 40 μl of the reaction mixture each, initially. The reaction mixture consisted of an aqueous buffer solution of 100 mM Tris-HCl (Tris[hydroxymethyl]aminomethane hydrochloride), 25 mM magnesium chloride, 50 Mm of potassium chloride, 0.1% w/v Triton X-100, 8 μM of propionated non-radioactive UDP-MPP, 2 μM of ^3H-propionated UDP-MPP at room temperature, 10 μl of the enzyme at a concentration of 5 μg per ml and 17.5 μl of water. To this a solution of a test compound (e.g. Tunicamycin) of varying concentration is added. […] The reaction commences with the addition of the enzyme.
The Escherichia coli membranes, which serve as a source of the enzyme, were prepared in the following manner.
The membranes are prepared from spheroplast pellets which are commercially available. Each pellet contains a certain amount of E. coli Hfr H. The pellet is thawed overnight at 4° C. The pellet is weighed and the figure is multiplied by 7.5. […] The pellet is again resuspended in the same volume of 50 mM Tris-HCl buffer solution of pH 7.5 as calculated in the previous paragraph, containing, 20 μg/ml DNAse, 20 μg/ml RNAse, 1 mM magnesium chloride and 1 mM β-mercapto ethanol. […]
The product is extracted with saturated n-butanol and washed with 50 μl of water. It is then counted, 25-50 μl at a time on a scintillation counter.

[2] = target: T1, translocase enzyme (Escherichia coli membranes); experiment: reversal of the translocase reaction (Lipid I back to the water soluble precursor) on addition of UMP; type: biochemical; details: 1 μM UMP added after 10 minutes reaction, stopped after about 3-4 minutes
Source text: The reaction catalysed by the enzyme translocase is known to be reversible. To show the reversible reaction, the enzyme reaction was continued for 10 mintues to form the radioactive product, undecaprenol-pyrophosphate-[2,3-^3H]propionate-N-acetylmuramylpentapeptide, Lipid I. This is seperated from its organic phase. Once the radioactive product is formed one set of reactions is stopped using the 2:1 pyridinium acetate and n-butanol mixture as described before. In a parallel set of reactions, 1 μM UMP is added. The reaction is then stopped after about 3-4 minutes. The lipid fraction can be extracted from both the sets of reactions. […] This indicates the reversal of Lipid I to the water soluble precursor.

T1 sequence (P0A6W3 whole entry): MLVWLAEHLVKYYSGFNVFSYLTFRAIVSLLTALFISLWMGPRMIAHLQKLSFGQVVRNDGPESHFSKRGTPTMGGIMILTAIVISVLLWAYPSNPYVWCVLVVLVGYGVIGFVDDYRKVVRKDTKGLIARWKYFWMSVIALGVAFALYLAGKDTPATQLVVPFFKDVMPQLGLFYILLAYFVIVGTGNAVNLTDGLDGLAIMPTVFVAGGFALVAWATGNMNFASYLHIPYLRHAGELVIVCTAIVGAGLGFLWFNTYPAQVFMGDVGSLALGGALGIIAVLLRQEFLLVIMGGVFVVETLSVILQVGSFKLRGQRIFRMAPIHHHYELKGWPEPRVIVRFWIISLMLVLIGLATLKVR

| Molecule | inhibition of translocase (rate, cpm versus time compared with control) [1] | radioactive count in the organic phase (Lipid I) [2] |
| --- | --- | --- |
| Tunicamycin | antagonist of the translocase enzyme |  |
| O=c1ccn([C@@H]2O[C@H](COP(=O)(O)O)[C@@H](O)[C@H]2O)c(=O)[nH]1 [UMP] |  | reduced to basal levels |
